Data from US20130274174A1, “THERAPEUTIC COMBINATION OF DAPTOMYCIN AND PROTEIN SYNTHESIS INHIBITOR ANTIBIOTIC, AND METHODS OF USE” (priority 2011, published 2013).
In brackets after ≈: the same amount, converted by molar mass. Like-named read-outs stand apart in the source and are kept apart here.

What was measured:
[1] = test system: S. aureus MW2 (NRS123); assay: microbe, parasite or virus in culture; assay type: cell-based, Staphylococcus aureus; conditions: for MIC: Staphylococcus aureus
Description: (§1) S. aureus strains MW2 (NARSA collection clinical MRSA isolate, NRS123) and ATCC 33591 (MRSA strain from the American Type Culture Collection) were cultured on Mueller-Hinton II cation adjusted (MHA) medium in 90×90 mm square petri dishes. MHA containing ¼ of the MIC value of TR-700, TR-705, LZD, TIA, CLI, TET, or VAN, TMP/SMX throughout the plate and a continuous linear gradient of DAP across the plate was used to passage MW2. ATCC 33591 was passaged with ¼ of the MIC of a subset of these drugs (TR-700, TMP/SMX, and VAN). A DAP-only control passage group was included for both strains. DAP gradients were created by pouring two layers of media as previously described (Bryson, V., et al. 1952. Microbial selection. Science 116:45-51; Locke, J. B., et al., 2009. Antimicrob. Agents Chemother. 53:5265-5274). Following each passage the leading edge of growth (i.e., most resistant cells) was resuspended in phosphate buffered saline (PBS) to an absorbance of 0.30 OD600 and a 100 μl aliquot containing ˜3.0×10^7 CFU (colony-forming units) was spread on to the proceeding passage plate. The starting maximal DAP concentration was 2 μg/ml and was increased in two-fold increments when the leading edge of growth surpassed the half way point on the plate. A glycerol stock was made from the total cell population for each culture condition for each passage. Thirty serial passages were completed for each treatment group.

[2] = test system: S. aureus ATCC 33591; assay: microbe, parasite or virus in culture; assay type: cell-based, Staphylococcus aureus; conditions: for MIC: Staphylococcus aureus
Description: as §1

For `Cn1nnc(-c2ccc(-c3ccc(N4C[C@H](CO)OC4=O)cc3F)cn2)n1` [TR-700, Tedizolid], the MIC ([1]; NRS123, passage 25, selection group DAP + TIA) was 0.5 µg/mL, the MIC ([1]; NRS123, passage 25, selection group DAP + TMP/SMX) was 0.25 µg/mL and the MIC ([1]; NRS123, passage 25, selection group DAP + TR-700) was 0.5 µg/mL. It also gave an MIC ([1]; NRS123, passage 25, selection group DAP + TR-705) of 0.5 µg/mL, an MIC ([1]; NRS123, passage 25, selection group DAP + VAN) of 0.25 µg/mL and an MIC ([1]; NRS123, passage 30, selection group DAP) of 0.25 µg/mL (≈ 0.675 µM). For the same compound, the MIC ([1]; NRS123, passage 30, selection group DAP + CLI) was 0.25 µg/mL, the MIC ([1]; NRS123, passage 30, selection group DAP + LZD) was 0.5 µg/mL and the MIC ([1]; NRS123, passage 30, selection group DAP + TET) was 0.25 µg/mL. The MIC ([1]; NRS123, passage 30, selection group DAP + TIA) was 0.5 µg/mL, the MIC ([1]; NRS123, passage 30, selection group DAP + TMP/SMX) was 0.5 µg/mL and the MIC ([1]; NRS123, passage 30, selection group DAP + TR-700) was 0.5 µg/mL. The MIC ([1]; NRS123, passage 30, selection group DAP + TR-705) was 0.5 µg/mL, the MIC ([1]; NRS123, passage 30, selection group DAP + VAN) was 0.25 µg/mL and the MIC ([1]; NRS123, read-out: DAP MIC by the end of the experiment (selection of DAP^ns strains), MW2, passaged with DAP alone or with co-selecting agent at ¼ MIC, CLSI breakpoint) was over 1 µg/mL. The “susceptibility to the co-selecting agent in its co-selection group” value ([1]; over the course of 30 passages) was “did not demonstrate reduced susceptibility to TR-700”, the “DAP MIC lower than DAP-only control” value ([2]; ATCC 33591, co-selecting agent at ¼ MIC) was 4 fold and the MIC ([2]; ATCC33591, passage 0, ATCC 33591 WT) was 0.5 µg/mL (≈ 1.35 µM). It also gave an MIC ([2]; ATCC33591, passage 5, selection group DAP) of 0.125 µg/mL (≈ 0.338 µM), an MIC ([2]; ATCC33591, passage 5, selection group DAP + TMP/SMX) of 0.5 µg/mL and an MIC ([2]; ATCC33591, passage 5, selection group DAP + TR-700) of 0.5 µg/mL. For the same compound, the MIC ([2]; ATCC33591, passage 5, selection group DAP + VAN) was 0.5 µg/mL, the MIC ([2]; ATCC33591, passage 10, selection group DAP) was 0.125 µg/mL (≈ 0.338 µM) and the MIC ([2]; ATCC33591, passage 10, selection group DAP + TMP/SMX) was 0.25 µg/mL. For the same compound, the MIC ([2]; ATCC33591, passage 10, selection group DAP + TR-700) was 0.5 µg/mL, the MIC ([2]; ATCC33591, passage 10, selection group DAP + VAN) was 0.5 µg/mL and the MIC ([2]; ATCC33591, passage 15, selection group DAP) was 0.125 µg/mL (≈ 0.338 µM). The MIC ([2]; ATCC33591, passage 15, selection group DAP + TMP/SMX) was 0.25 µg/mL, the MIC ([2]; ATCC33591, passage 15, selection group DAP + TR-700) was 0.5 µg/mL and the MIC ([2]; ATCC33591, passage 15, selection group DAP + VAN) was 0.25 µg/mL. The MIC ([2]; ATCC33591, passage 20, selection group DAP) was 0.125 µg/mL (≈ 0.338 µM), the MIC ([2]; ATCC33591, passage 20, selection group DAP + TMP/SMX) was 0.25 µg/mL and the MIC ([2]; ATCC33591, passage 20, selection group DAP + TR-700) was 0.5 µg/mL. It also gave an MIC ([2]; ATCC33591, passage 20, selection group DAP + VAN) of 0.5 µg/mL, an MIC ([2]; ATCC33591, passage 25, selection group DAP) of 0.125 µg/mL (≈ 0.338 µM) and an MIC ([2]; ATCC33591, passage 25, selection group DAP + TMP/SMX) of 0.25 µg/mL. It also gave an MIC ([2]; ATCC33591, passage 25, selection group DAP + TR-700) of 0.25 µg/mL, an MIC ([2]; ATCC33591, passage 25, selection group DAP + VAN) of 0.25 µg/mL and an MIC ([2]; ATCC33591, passage 30, selection group DAP) of 0.125 µg/mL (≈ 0.338 µM). The MIC ([2]; ATCC33591, passage 30, selection group DAP + TMP/SMX) was 0.25 µg/mL, the MIC ([2]; ATCC33591, passage 30, selection group DAP + TR-700) was 0.5 µg/mL and the MIC ([2]; ATCC33591, passage 30, selection group DAP + VAN) was 0.5 µg/mL. It also gave an MIC ([2]; ATCC33591, read-out: DAP MIC of the co-selection passage group, ATCC 33591, through P15, co-selecting agent at ¼ MIC) of at most 1 µg/mL.
